Data: patent US20240166641A1, “HETEROCYCLES AND USES THEREOF” (Kumquat Biosciences Inc., priority 2021, published 2024)
pIC50: −log10 of the molar value.

Tests used:
[1] = molecular target: T1, PTPN2 (Homo sapiens, UniProt P17706); assay: Phosphatase activity assay (Bio-Biochem-DiFMUP), PTPN2; format: biochemical; settings: DiFMUP substrate, room temperature
T1 sequence (P17706 1-415): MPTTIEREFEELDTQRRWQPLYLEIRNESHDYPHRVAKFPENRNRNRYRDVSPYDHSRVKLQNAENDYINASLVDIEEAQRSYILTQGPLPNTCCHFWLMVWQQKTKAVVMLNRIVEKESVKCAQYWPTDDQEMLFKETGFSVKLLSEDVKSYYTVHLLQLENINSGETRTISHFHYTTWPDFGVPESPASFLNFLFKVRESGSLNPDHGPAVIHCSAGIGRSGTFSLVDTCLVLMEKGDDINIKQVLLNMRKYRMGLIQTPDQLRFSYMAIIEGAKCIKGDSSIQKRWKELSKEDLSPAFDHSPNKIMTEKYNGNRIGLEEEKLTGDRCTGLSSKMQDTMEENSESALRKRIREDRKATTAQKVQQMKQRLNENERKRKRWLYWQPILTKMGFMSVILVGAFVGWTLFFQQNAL
Text: (§1) The selectivity and potency of a small molecule PTPN2 inhibitor as provided herein (e.g., a derivative of Formula I, II, III, IV; or sub-formulae thereof) against one or more protein tyrosine phosphatase (PTP) enzymes, and specifically against PTPN2, can be assessed in various ways. The one or more PTP enzymes comprise Mycobacterium protein tyrosine phosphatase A (mPTPA), Mycobacterium protein tyrosine phosphatase B (mPTPB), PTPN1 (i.e., PTP1B), PTPN2 (i.e., TC-PTP), SHP-1, SHP-2, FAP-1, Meg2, HePTP, Laforin, VHX, VHR, LMWPTP, Cdcl4A, LAR, CD45, PTPRG, a fragment thereof, a variant thereof, and a combination thereof. Selectivity and potency of a small molecule PTPN2 inhibitor is evaluated using a PTP activity inhibition assay. The assay is performed using a buffer comprising 50 millimolar (mM) Bis-Tris (pH=6.3), 2 mM EDTA, and 5 mM N,N′-dimethyl-N,N′-bis(mercaptoacetyl)hydrazine (DMH). The assay is performed using a phosphated substrate, e.g., 10 mM fluorescein diphosphate (FDP) that is stored at −20° C. Alternatively or in addition to, the assay is performed using 10 mM DiFMUP as a phosphated substrate. Each PTP enzyme is diluted in an enzyme dilution buffer comprising 50 mM Bis-Tris (pH=6.3), 2 mM EDTA, 5 mM DMH, 20% (vol./vol.) glycerol, and 0.01% (vol./vol.) Triton X-100.
(§2) The assay is carried out at room temperature in 96 well plates. A reaction mixture of 170 microliter (μL) of the assay buffer comprising 10 μM FDP or DiFMIUP is added to each well. A 10 μL volume of (i) a compound disclosed herein (e.g., PTPN2 inhibitor) dissolved in DMSO at one of 10 concentrations from a serial dilution or (ii) DMSO alone for control is added to each well. The reaction is initiated by adding 20 μL of a PTP enzyme (e.g., PTPN2) that is diluted in the enzyme dilution buffer. The phosphatase activity of the PTP enzyme is assessed by monitoring appearance of a fluorescent product (e.g., fluorescein monophosphate (FMP) from FDP, or 6,8-difluoro-7-hydroxyl-4-coumarin (DiFMU) from DiFMUP) continuously for about 15 to 30 minutes, using the SpectraMax® Gemini™ XPS Microplate Spectrofluorometer (Molecular Devices®) with excitation of 440 nm and emission at 530 nm (cutoff filter at 525 nm) for FMP and excitation at 360 nm and emission at 450 nm (cutoff filter at 435 nm) for DiFMU. The rate (e.g., the initial rate) of FMP or DiFMU formation is plotted against the concentration of the small molecule PTPN2 inhibitor, and the data is fitted (e.g., using a 4-parameter equation) to determine the inflection point of the fit as the IC50 of the small molecule PTPN2 inhibitor for a specific enzyme. Table 6 summarizes the IC50 values of compounds disclosed herein against PTPN2 and PTPN1.

[2] = test system: OT-1 cells; assay: T-cell activation: intracellular production of IFNγ and TNFα in exhausted OT-1 cells; format: cell-based; settings: 10 uM compound, OT-1 cells restimulated with 1 μM OVA, read-out: % TNFa + /IFNg + production in compound-treated cells (uM compound) relative to negative control (DMSO)
Method: 1*10^6 OT-1 cells are seeded in a 24well in a volume of 1 mL of RPMI/10% FCS, and activated with 10 nM OVA protein for 48 h. Cells are then split 1:4 into 96well plates after two washes in warm media. To induce exhaustion, cells are then expanded for 3 days in the presence of vehicle control or a compound described herein (e.g., PTPN2 inhibitor) various concentrations, as well as 5 ng/ml IL-7 and 5 ng/ml IL-15, with the addition of fresh OVA on each day. After this point, cells are treated with Brefeldin A and restimulated with 1 μM of OVA for 4-6h, and cells are stained to assess production of IFNγ and TNFα intracellularly by flow cytometry. The results are shown as increase in percentage production of IFNγ and TNFα in cells treated with an exemplified compound at 10 uM, relative to a negative control (DMSO) of cells without being treated with the compound but merely DMSO (a solvent in which exemplified compounds are dissolved). See Table 10 below summarizes percentage increase in IFNγ and TNFα intracellular production in cells treated with an exemplified compound (at 10 uM) or without it, relative to a negative control (DMSO).

[3] = test system: B16F10 mouse melanoma cells; assay: MHC expression associated with IFNγ signaling, flow cytometry; format: cell-based; settings: B16-F10, 3 uM compound, 48 hours, normalized to DMSO/with IFNγ control, read-out: % MHC in cells treated with Compound at 3 uM relative to negative control (DMSO)
Method: B16F10 mouse melanoma cells (ATCC Cat #CRL-6475, Manassas, VA) are seeded at approximately a density of 500 cells per well in a 384-well clear bottom plate (Corning Cat #3765, Corning, 5 NY) in 25 μL total volume of DMEM+10% FBS (Sigma Cat #D6429 and Sigma Cat #F4135, St. Louis, MO). Cells are allowed to adhere overnight at 37° C.+5% CO2. On the following day, 12.5 μL of mouse IFNγ (RD systems Cat #485-MI/CF, Minneapolis, MN) is added to half of the plate (columns 13-24) at a concentration of 2 ng/mL for a final assay concentration of 0.5 ng/mL of IFNγ. Media only (12.5 μL of DMEM+10% FBS) is added to the remainder of the 10 plate (columns 1-12). Next, compounds resuspended in DMSO (Sigma Cat #D2650) at 100 mM are diluted in semi-log dilutions in DMSO ranging from 100 mM to 0.001 mM and DMSO only controls are included. The compound/DMSO dilutions are further diluted 1:250 in DMEM+10% FBS, and 12.5 μL of these dilutions are added in triplicates to cells of both treatment arms (with and without IFNγ). Compounds are only dosed in the inner 240 wells, avoiding the outer 2-well perimeter of the plate to minimize edge effects. Finally, the plate is loaded into an IncuCyte® S3 Live Cell Analysis System (Essen Bioscience-Sartorius, Ann Arbor, MI) maintained in a 37° C.+5% CO2 incubator, allowed to equilibrate for 2 hours, and treated for 48 hours. MHC levels are measured by flow cytometry using a FITC anti-mouse H-2kb antibody (clone AF6-88.5), and levels are normalized based on DMSO/with IFNγ control. Table 7 below summarizes the percentage in MHC expression in cells treated with or without compounds disclosed herein at a specified concentration.

[4] = molecular target: T2, PTP1B (Homo sapiens, UniProt P18031); assay: Phosphatase activity assay (Bio-Biochem-DiFMUP), PTP1B; format: biochemical; settings: DiFMUP substrate, room temperature
T2 sequence (P18031 1-435): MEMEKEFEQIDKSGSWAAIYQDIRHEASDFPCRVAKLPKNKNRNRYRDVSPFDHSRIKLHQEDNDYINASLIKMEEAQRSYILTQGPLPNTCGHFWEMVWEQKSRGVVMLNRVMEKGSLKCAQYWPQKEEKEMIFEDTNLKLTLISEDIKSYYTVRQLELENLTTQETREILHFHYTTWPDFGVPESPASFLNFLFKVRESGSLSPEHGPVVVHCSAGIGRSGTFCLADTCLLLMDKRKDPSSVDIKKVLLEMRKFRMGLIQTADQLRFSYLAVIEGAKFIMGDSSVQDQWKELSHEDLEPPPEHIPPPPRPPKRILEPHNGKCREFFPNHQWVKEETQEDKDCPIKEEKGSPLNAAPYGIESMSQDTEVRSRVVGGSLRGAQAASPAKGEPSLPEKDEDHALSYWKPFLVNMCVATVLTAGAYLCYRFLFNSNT
Text: as §1, §2

pIC50 [1]	pIC50 [4]	Structure (SMILES)	activity at 10 µM [2] [%]	activation at 3 µM [3] [%]
≥ 6.00	≥ 6.00	O=C1CN(c2c(O)cc3ccc(OCCc4ccc(F)cc4)nc3c2F)S(=O)(=O)N1 [Compound 204, 5-(8-fluoro-2-(4-fluorophenethoxy)-6-hydroxyquinolin-7-yl)-1,2,5-thiadiazolidin-3-one 1,1-dioxide]	430	1 to 10
≥ 6.00	≥ 6.00	CC(C)CCNC(=O)c1cc2c(F)c(N3CC(=O)NS3(=O)=O)c(O)cc2s1 [Compound 130, 5-(1,1-dioxido-4-oxo-1,2,5-thiadiazolidin-2-yl)-4-fluoro-6-hydroxy-N-isopentylbenzo[b]thiophene-2-carboxamide]	–	> 10
≥ 6.00	≥ 6.00	O=C1CN(c2c(O)cc3ccc(OCC4CCCOC4)nc3c2F)S(=O)(=O)N1 (centres unmarked) [Compound 144]	251	> 10
≥ 6.00	≥ 6.00	O=C1CN(c2c(O)cc3ccc(OCC4CCOC4)nc3c2F)S(=O)(=O)N1 (centres unmarked) [Compound 139]	226	> 10
≥ 6.00	≥ 6.00	N#CCCCOc1ccc2cc(O)c(N3CC(=O)NS3(=O)=O)c(F)c2n1 [Compound 155]	–	> 10
≥ 6.00	≥ 6.00	CC(C)(C)CCOc1ccc2cc(O)c(N3CC(=O)NS3(=O)=O)c(F)c2n1 [Compound 150]	260	–
≥ 6.00	≥ 6.00	COC(C)(C)CCOc1ccc2cc(O)c(N3CC(=O)NS3(=O)=O)c(F)c2n1 [Compound 149]	207	> 10
≥ 6.00	≥ 6.00	CC(C)CCNc1cc2cc(N3CC(=O)NS3(=O)=O)c(O)cc2n(C)c1=O [Compound 120]	194	–
≥ 6.00	≥ 6.00	O=C1CN(c2c(O)cc3ccc(OCCc4ccccc4)nc3c2F)S(=O)(=O)N1 [Compound 151]	227	1 to 10
≥ 6.00	≥ 6.00	CC(C)CCNc1ccc2cc(O)c(N3CC(=O)NS3(=O)=O)cc2n1 [Compound 113, 5-(6-hydroxy-2-(isopentylamino)quinolin-7-yl)-1,2,5-thiadiazolidin-3-one 1,1-dioxide]	210	–
≥ 6.00	≥ 6.00	O=C1CN(c2c(O)cc3ccc(OCCC4CCCC4)nc3c2F)S(=O)(=O)N1 [Compound 158]	152	> 10
≥ 6.00	≥ 6.00	CC(C)CCCc1cc2c(F)c(N3CC(=O)NS3(=O)=O)c(O)cc2n(C)c1=O [Compound 190]	–	1 to 10
≥ 6.00	≥ 6.00	CC(C)CCNc1cc2c(F)c(N3CC(=O)NS3(=O)=O)c(O)cc2n(C)c1=O [Compound 186]	–	> 10
≥ 6.00	≥ 6.00	O=C1CN(c2cc3cc(C(=O)NCCc4ccccc4)sc3cc2O)S(=O)(=O)N1 [Compound 170]	–	–
5.00 to 6.00	≥ 6.00	Cn1c(=O)c(NCC2(C#N)CC2)cc2cc(N3CC(=O)NS3(=O)=O)c(O)cc21 [Compound 202]	–	–
≥ 6.00	≥ 6.00	Cn1c(=O)c(NCCCCC#N)cc2cc(N3CC(=O)NS3(=O)=O)c(O)cc21 [Compound 193]	–	–
5.00 to 6.00	≥ 6.00	CC(C)CCN1Cc2cc(N3CC(=O)NS3(=O)=O)c(O)cc2N(C)C1=O [Compound 116]	–	–
≥ 6.00	≥ 6.00	CCN1CCC(CNc2cc3cc(N4CC(=O)NS4(=O)=O)c(O)cc3n(C)c2=O)CC1 [Compound 171]	–	–
< 5.00	< 5.00	COC(=O)c1cc2cc(N3CC(=O)NS3(=O)=O)c(OC)cc2s1 [Compound 102, methyl 5-(1,1-dioxido-4-oxo-1,2,5-thiadiazolidin-2-yl)-6-methoxybenzo[b]thiophene-2-carboxylate]	–	–

Structure (SMILES)	pIC50 [1]	pIC50 [4]	activity at 10 µM [2] [%]	activation at 3 µM [3] [%]
CN1CC=C(c2cnc3cc(O)c(C4=CC(=O)NS4(=O)=O)cc3c2)CC1 [Compound 114]	< 5.00	< 5.00	–	–
